What all share (assay type): biochemical
For assay [1], the target named is T1, Canine heart PDE III (Canis lupus familiaris, UniProt A0A8I3NYE0).
T1 construct: canine and human heart phosphodiesterase PDE III; from tissue; host or cells: canine heart (muscle)
T1 sequence (A0A8I3NYE0 1-1135): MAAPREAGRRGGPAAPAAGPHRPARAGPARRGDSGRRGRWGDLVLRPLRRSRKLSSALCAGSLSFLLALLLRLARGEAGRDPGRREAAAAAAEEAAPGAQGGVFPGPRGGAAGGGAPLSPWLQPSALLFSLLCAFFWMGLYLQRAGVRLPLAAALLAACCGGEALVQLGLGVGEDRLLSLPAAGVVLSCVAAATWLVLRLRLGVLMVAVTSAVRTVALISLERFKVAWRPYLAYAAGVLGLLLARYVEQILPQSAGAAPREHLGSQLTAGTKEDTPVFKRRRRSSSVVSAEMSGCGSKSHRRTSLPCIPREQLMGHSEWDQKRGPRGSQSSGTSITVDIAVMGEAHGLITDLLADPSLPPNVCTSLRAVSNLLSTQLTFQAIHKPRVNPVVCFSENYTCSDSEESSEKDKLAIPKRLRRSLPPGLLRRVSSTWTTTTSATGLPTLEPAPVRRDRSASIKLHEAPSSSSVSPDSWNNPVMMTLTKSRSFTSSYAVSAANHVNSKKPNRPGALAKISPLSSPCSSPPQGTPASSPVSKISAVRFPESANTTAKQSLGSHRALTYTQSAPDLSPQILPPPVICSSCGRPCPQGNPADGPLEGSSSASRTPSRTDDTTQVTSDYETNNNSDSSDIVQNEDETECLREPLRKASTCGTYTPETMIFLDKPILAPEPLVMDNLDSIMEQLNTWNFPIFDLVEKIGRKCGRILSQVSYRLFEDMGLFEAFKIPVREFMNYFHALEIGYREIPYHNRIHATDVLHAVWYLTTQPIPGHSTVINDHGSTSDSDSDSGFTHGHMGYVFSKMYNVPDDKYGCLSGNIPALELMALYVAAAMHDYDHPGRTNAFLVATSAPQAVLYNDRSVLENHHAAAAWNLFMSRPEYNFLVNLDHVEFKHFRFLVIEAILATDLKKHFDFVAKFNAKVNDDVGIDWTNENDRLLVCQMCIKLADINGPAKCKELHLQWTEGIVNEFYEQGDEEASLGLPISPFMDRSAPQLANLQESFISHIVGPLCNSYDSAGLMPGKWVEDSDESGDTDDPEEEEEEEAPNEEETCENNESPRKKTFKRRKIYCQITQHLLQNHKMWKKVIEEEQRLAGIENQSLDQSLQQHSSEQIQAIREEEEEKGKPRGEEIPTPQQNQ
Nature of the assay: Inhibition of Phosphodiesterase Type III (PDE III), canine heart. The following applies: 1.2 μM 3H-cAMP, pH 7.1, 10 min at 37° C. As to the method: (§1) The alleviating and/or curing effect of the instant compounds on allergic and atopic diseases was assessed by an in vitro assay system to detect an inhibiting effect on the phosphodiesterase type III in human and canine muscle cells and a similar inhibiting effect on the phosphodiesterase type IV in human mononuclear lymphocytes.
(§2) The incubation mixture (pH 7.1) (200 μl) contained 40 mM Tris, 3.75 mM 2-mercaptoethanol, 6 mM magnesium chloride, 1.2 μM ^3 H-cAMP (310 mCi/mmole) and the phosphodiesterase type III, the amount depending on the enzymatic activity.
(§3) When the effect of different compounds on phosphodiesterase activity was tested, the medium without cAMP was incubated with the compound(s) or its carrier (DMSO-1% final concentration) for 5 min. The enzymatic reaction was started by addition of ^3 H-cAMP and stopped 10 min later after transferring the tubes in a waterbath at 100° C. for 40 sec. After cooling to room temperature, alkaline phosphatase (0.25 μg/ml) was added and the mixture was left at room temperature for 20 min. The mixture was subsequently applied to a 1 ml DEAE-Sephadex A-25 column (pasteur pipet) and washed twice with 3 ml 20 mM Tris-HCl at pH 7.4. The ^3 H-labelled reaction products in the eluate were quantified by liquid scintillation counting.
(§4) The inhibiting effect of the present compounds on canine and human heart phosphodiesterase PDE III was measured at different concentrations of the instant compounds. The IC50 values were calculated graphically from the thus obtained inhibition values.

Assay [2] addresses T2, Human heart PDE III (Homo sapiens, UniProt Q14432).
T2 construct: canine and human heart phosphodiesterase PDE III; from tissue; host or cells: human heart (muscle)
The assay is described as follows: Inhibition of Phosphodiesterase Type III (PDE III), human heart. The following applies: 1.2 μM 3H-cAMP, pH 7.1, 10 min at 37° C. As to the method:
as §1, §2, §3, §4

Assay [3] deals with Human MNL PDE IV. Nature of the assay: Inhibition of Phosphodiesterase Type IV From Human Mononuclear Lymphocytes (MNL). The following applies: human mononuclear lymphocyte PDE IV; in presence of 10^-4 M cGMP; 1.2 μM 3H-cAMP, pH 7.1, 10 min at 37° C. The method, then: as §1
Human blood was obtained from donors that were documented before to suffer from allergic or atopic disease. 35 ml of blood was obtained from the […] veins by venipuncture and collected in 5 ml 100 mM K2 EDTA pH 7.1. 4 ml of 0.6% dextran in saline was added and the mixture was left at room temperature for 30 min. The red blood cell free supernatant was collected, layered gently on a Lymphoprep solution and centrifuged at 750 g for 15 min at 18° C. The interfase was collected, diluted with a buffer containing […], 50 mM KCl and 100 mM HEPES at pH 7.4, and centrifuged at 900 g for 10 min at 10° C. The resulting pellet was resuspended in the same buffer.
The suspension of MNLs was adjusted to 1% Triton X100 and 0.3% Brij35 and frozen in liquid N2. After 3 freeze-thawn cycles, the suspension was homogenized at 4° C. in a Polytron PT3000 (Kinematica AG) homogenizer (PT-DA 3020/2 TS) at 8000 rpm for 5×10 sec, followed by sonication at 4° C. in a Branson sonifier 250 at a frequency output of 20000 Hz, working output 40 W for 10×30 sec. The homogenate was centrifuged at 10000 g for 10 min. The resulting supernatant was used as source for PDE IV activity. The incubation mixture (pH 7.1) (200 μl) contained 40 mM Tris, 3.75 mM 2-mercapto-ethanol, 6 mM magnesium chloride, 1.2 μM ^3 H-cAMP (310 mCi/mmole) and the phosphodiesterase type IV, the amount depending on the enzymatic activity. […] To block contaminating PDE III activity, PDE IV activity was measured in the presence of 10^-4 M cGMP.
as §3
The inhibiting effect of the present compounds on human mononuclear lymphocyte phosphodiesterase PDE IV was measured at different concentrations of the instant compounds. The IC50 values were calculated graphically from the thus obtained inhibition values.

Molecules are shown by their SMILES.

T2 sequence (Q14432 whole entry): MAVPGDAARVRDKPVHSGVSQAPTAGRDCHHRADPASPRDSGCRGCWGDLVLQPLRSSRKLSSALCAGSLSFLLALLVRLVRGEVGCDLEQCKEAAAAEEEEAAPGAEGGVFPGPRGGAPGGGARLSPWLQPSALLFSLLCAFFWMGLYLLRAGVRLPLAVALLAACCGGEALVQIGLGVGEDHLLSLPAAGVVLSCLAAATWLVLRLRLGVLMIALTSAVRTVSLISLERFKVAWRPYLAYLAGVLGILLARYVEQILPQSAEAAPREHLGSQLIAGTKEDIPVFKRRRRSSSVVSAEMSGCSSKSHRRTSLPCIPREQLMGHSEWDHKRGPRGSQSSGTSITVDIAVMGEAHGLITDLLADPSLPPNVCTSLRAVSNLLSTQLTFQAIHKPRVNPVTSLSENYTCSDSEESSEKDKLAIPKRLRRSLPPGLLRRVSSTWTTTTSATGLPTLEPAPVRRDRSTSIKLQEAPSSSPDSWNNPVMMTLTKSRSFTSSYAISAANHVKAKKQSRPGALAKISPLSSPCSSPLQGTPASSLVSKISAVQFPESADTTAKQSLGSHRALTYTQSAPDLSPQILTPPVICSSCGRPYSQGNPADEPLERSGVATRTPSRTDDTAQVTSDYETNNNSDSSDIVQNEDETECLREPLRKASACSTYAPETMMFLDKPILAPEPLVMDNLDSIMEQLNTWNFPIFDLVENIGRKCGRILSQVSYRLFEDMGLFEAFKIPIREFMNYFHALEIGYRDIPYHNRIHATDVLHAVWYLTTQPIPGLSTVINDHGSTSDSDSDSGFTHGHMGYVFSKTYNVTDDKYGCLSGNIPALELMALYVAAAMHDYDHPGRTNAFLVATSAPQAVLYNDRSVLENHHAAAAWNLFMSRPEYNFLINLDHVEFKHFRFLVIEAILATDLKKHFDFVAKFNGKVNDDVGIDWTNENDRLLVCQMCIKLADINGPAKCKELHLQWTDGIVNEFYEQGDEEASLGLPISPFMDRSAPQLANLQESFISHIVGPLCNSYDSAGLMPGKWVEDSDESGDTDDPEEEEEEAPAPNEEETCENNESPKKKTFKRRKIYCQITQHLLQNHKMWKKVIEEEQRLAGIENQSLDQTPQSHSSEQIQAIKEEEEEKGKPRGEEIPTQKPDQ

Turning to `O=C(c1ccccc1)c1ccc2nc3[nH]c(=O)[nH]c3cc2c1` [Compound 1, 7-benzoyl-1,3-dihydro-2H-imidazo[4,5-b]quinolin-2-one], the IC50 turned out to be 0.01 µM in assay [1], 0.042 µM in assay [2] and 5.8 µM in assay [3].
The corresponding values for `COc1ccc(C(=O)c2ccc3nc4[nH]c(=O)[nH]c4cc3c2)cc1OC` [Compound 2, 7-(3,4-dimethoxybenzoyl)-1,3-dihydro-2H-imidazo[4,5-b]quinolin-2-one] are 0.033 µM, 0.086 µM and 4.5 µM.
Regarding `O=C(c1ccc(F)cc1)c1ccc2nc3[nH]c(=O)[nH]c3cc2c1` [Compound 3, 7-(4-fluorobenzoyl)-1,3-dihydro-2H-imidazo[4,5-b]quinolin-2-one], the results for the IC50 in assay [1] and in assay [2] were 0.037 µM and 0.036 µM, respectively.
The corresponding values for `Cc1ccc(C(=O)c2ccc3nc4[nH]c(=O)[nH]c4cc3c2)cc1` [Compound 4, 1,3-dihydro-7-(4-methylbenzoyl)-2H-imidazo[4,5-b]quinolin-2-one] are 0.026 µM and 0.018 µM.
Take `O=C(c1cccnc1)c1ccc2nc3[nH]c(=O)[nH]c3cc2c1` [Compound 5, 1,3-dihydro-7-(3-pyridinylcarbonyl-2H-imidazo[4,5-b]quinolin-2-one monohydrate]: the IC50 in assay [1] turned out to be 0.042 µM; in assay [2], 0.12 µM.
Regarding `CCOC(=O)CCCCO/N=C(\c1cccnc1)c1ccc2nc3[nH]c(=O)[nH]c3cc2c1` [Compound 6], the IC50 in assay [1] is 0.03 µM; in assay [2], 0.044 µM; in assay [3] it was 1.7 µM.
For `CN(C(=O)CO/N=C(/c1ccccc1)c1ccc2nc3[nH]c(=O)[nH]c3cc2c1)C1CCCCC1` [Compound 7], in that order: 0.032 µM, 0.027 µM and 2.6 µM.
As to `COc1cccc(C(=O)c2ccc3nc4[nH]c(=O)[nH]c4cc3c2)c1` [Compound 9], the values for the IC50 in assay [1] and in assay [2] were 0.021 µM and 0.018 µM, respectively.
With `CN(C(=O)CO/N=C(\c1ccccc1)c1ccc2nc3[nH]c(=O)[nH]c3cc2c1)C1CCCCC1` [Compound 10, (E)-N-cyclohexyl-2-[[[(2,3-dihydro-2-oxo-1H-imidazo{4,5-b]quinolin-7-yl)phenylmethylene]amino]oxy]-N-methylacetamide], the values for the IC50 in assay [1], in assay [2] and in assay [3] were 0.014 µM, 0.017 µM and 0.49 µM, respectively.
For `CCOC(=O)CO/N=C/c1ccc2nc3[nH]c(=O)[nH]c3cc2c1` [Compound 11], the IC50 stood at 0.026 µM in assay [1] and 0.039 µM in assay [2].
As for `CCOC(=O)CCCCO/N=C(/c1cccnc1)c1ccc2nc3[nH]c(=O)[nH]c3cc2c1` [Compound 12], the values for the IC50 in assay [1], in assay [2] and in assay [3] were 0.029 µM, 0.033 µM and 3.6 µM, respectively.
Regarding `O=C(O)CCCCO/N=C(\c1cccnc1)c1ccc2nc3[nH]c(=O)[nH]c3cc2c1` [Compound 13, (Z)-5-[[[(2,3-dihydro-2-oxo-1H-imidazo[4,5-b]-quinolin-7-yl)(3-pyridinyl)methylene]amino]oxy]pentanoic acid], the values for the IC50 in assay [1] and in assay [2] were 0.084 µM and 0.049 µM, respectively.
Take `O=C(O)CCCCON=C(c1cccnc1)c1ccc2nc3[nH]c(=O)[nH]c3cc2c1` [Compound 14, (E+Z)-5-[[[(2,3-dihydro-2-oxo-1H-imidazo[4,5-b]quinolin-7-yl)(3-pyridinyl)methylene]amino]oxy]pentanoic acid monohydrate]: the IC50 in assay [1] and in assay [2] was 0.1 µM throughout.

Source of the values: patent US5516908A, “1,3-dihydro-2H-imidazo-[4,5-β]quinolin-2-one derivatives and intermediates” (Janssen Pharmaceutica N.V., priority 1995, dated 1996).
